Test results published in patent US20230391786A1, “cGAS INHIBITORS” (Eli Lilly and Company, priority 2022, published 2023).
Counter-ions that a name gives are not always drawn.

Molecular target: recombinant human cGAS (Homo sapiens (Human), UniProt Q8N884)
Experiment: In vitro inhibition assay of cGAS activity (cGAMP production, RapidFire mass spectrometry)
Assay type: biochemical
Settings: 10 nM recombinant human cGAS, 60 nM 75-bp dsDNA, ATP, GTP, room temperature 3 hours, read-out: IC50 (μM), In vitro inhibition assay for Compounds 1-94
Description: Expression and Purification of Recombinant cGAS Protein: Insert cDNA encoding full-length of human cGAS into a modified bacterial expression vector containing an in-frame His6-tag. Induce the E. coli strain BL21(DE3) harboring the plasmid with 1 mM IPTG (Isopropyl β-D-1-thiogalactopyranoside) at 18° C. overnight. Purify the His6-tagged cGAS protein over HISpur Ni-NTA resin in the presence of benzonase and RNase followed by Superdex 200 size exclusion chromatography with storage buffer (50 mM Tris-HCl pH 7.5, 300 mM NaCl, 1 mM DTT, 10% glycerol).
In vitro inhibition assay of cGAS activity: Add a 5 μL mixture containing 10 mM Tris-Cl pH 7.5, 50 mM NaCl, 5 mM MgCl2, 1 mM DTT, 0.01% Triton X-100, 60 nM 75-bp dsDNA, […], 50 μM GTP, 10 nM of recombinant human cGAS, and serial dilutions of a test compound in DMSO to a 384-well plate and incubate at room temperature for 3 hours. Quench the reaction by the addition of 100 μL of stop solution containing 0.1% formic acid and 0.1 μM internal standard (3′3′-difluoro cGAMP). Measure the amount of cGAMP produced by RapidFire 365 mass spectrometry and evaluate inhibitory effect of a compound by plotting percent specific inhibition of cGAMP production against log concentration of the test compound. Calculate IC50 values using a 4-parameter non-linear logistic equation (y=(S0+((SInf−S0)/(1+((qAC50/x)^nHill))))).

Sequence of recombinant human cGAS (Q8N884 whole entry): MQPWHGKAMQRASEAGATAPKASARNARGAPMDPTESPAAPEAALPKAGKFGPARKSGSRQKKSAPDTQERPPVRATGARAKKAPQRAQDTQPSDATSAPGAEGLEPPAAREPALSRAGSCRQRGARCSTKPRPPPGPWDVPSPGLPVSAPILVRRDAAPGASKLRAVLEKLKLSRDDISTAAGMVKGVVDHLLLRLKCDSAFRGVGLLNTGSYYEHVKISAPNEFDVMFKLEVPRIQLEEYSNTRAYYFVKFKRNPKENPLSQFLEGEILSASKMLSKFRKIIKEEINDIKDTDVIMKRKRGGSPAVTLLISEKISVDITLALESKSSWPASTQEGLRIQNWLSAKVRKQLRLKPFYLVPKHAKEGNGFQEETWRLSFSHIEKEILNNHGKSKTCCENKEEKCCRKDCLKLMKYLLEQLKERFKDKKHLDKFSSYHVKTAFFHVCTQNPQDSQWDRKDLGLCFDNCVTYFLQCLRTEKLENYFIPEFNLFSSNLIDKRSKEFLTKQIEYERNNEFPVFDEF

Structure (SMILES)	IC50
CC(=O)NC1CCn2c1c(-c1cn[nH]c1)c1ccc(Cl)c(Cl)c12 (single isomer, unassigned) [Example 27, N-(5,6-Dichloro-9-(1H-pyrazol-4-yl)-2,3-dihydro-1H-pyrrolo[1,2-a]indol-1-yl)acetamide]	0.158 µM
Clc1ccc2c(-c3cn[nH]c3)c[nH]c2c1Cl [Example 1, 6,7-Dichloro-3-(1H-pyrazol-4-yl)-1H-indole]	0.0863 µM
Cc1[nH]c2c(Cl)c(Cl)ccc2c1-c1cn[nH]c1 [Example 2, 6,7-Dichloro-2-methyl-3-(1H-pyrazol-4-yl)-1H-indole]	0.0557 µM
Cc1c(-c2cn[nH]c2)c2ccc(Cl)c(Cl)c2n1C [Example 3, 6,7-Dichloro-1,2-dimethyl-3-(1H-pyrazol-4-yl)indole]	0.0614 µM
Cc1[nH]c2c(Cl)c(Cl)ccc2c1-n1ccnc1 [Example 4, 6,7-Dichloro-3-imidazol-1-yl-2-methyl-1H-indole]	0.0641 µM
CC(=O)NCc1[nH]c2c(Cl)c(Cl)ccc2c1-c1cn[nH]c1 [Example 5, N-[[6,7-Dichloro-3-(1H-pyrazol-4-yl)-1H-indol-2-yl]methyl]acetamide]	0.0246 µM
Clc1ccc2c(-c3cn[nH]c3)c(CNc3ccon3)[nH]c2c1Cl [Example 6, N-[[6,7-Dichloro-3-(1H-pyrazol-4-yl)-1H-indol-2-yl]methyl]isoxazol-3-amine]	0.0578 µM
O=C1Cn2c(c(-c3cn[nH]c3)c3ccc(Cl)c(Cl)c32)CCN1 [Example 7, 7,8-Dichloro-11-(1H-pyrazol-4-yl)-1,2,3,5-tetrahydro-[1,4]diazepino[1,7-a]indol-4-one]	0.0436 µM
O=C1Cn2c(c(-c3cn[nH]c3)c3ccc(Cl)c(Cl)c32)CN1 [Example 8, 6,7-Dichloro-10-(1H-pyrazol-4-yl)-2,4-dihydro-1H-pyrazino[1,2-a]indol-3-one]	0.0531 µM
Clc1ccc2c(-c3cn[nH]c3)c(CNc3nncs3)[nH]c2c1Cl [Example 10, N-[[6,7-Dichloro-3-(1H-pyrazol-4-yl)-1H-indol-2-yl]methyl]-1,3,4-thiadiazol-2-amine]	0.0629 µM
Cc1nnc(NCc2[nH]c3c(Cl)c(Cl)ccc3c2-c2cn[nH]c2)s1 [Example 11, N-[[6,7-Dichloro-3-(1H-pyrazol-4-yl)-1H-indol-2-yl]methyl]-5-methyl-1,3,4-thiadiazol-2-amine]	0.0423 µM
Cn1cnnc1NCc1[nH]c2c(Cl)c(Cl)ccc2c1-c1cn[nH]c1 [Example 12, N-[[6,7-Dichloro-3-(1H-pyrazol-4-yl)-1H-indol-2-yl]methyl]-4-methyl-1,2,4-triazol-3-amine]	0.0649 µM
O=C1CCc2c(-c3cn[nH]c3)c3ccc(Cl)c(Cl)c3n2C1 [Example 17, 3,4-Dichloro-10-(1H-pyrazol-4-yl)-8,9-dihydro-6H-pyrido[1,2-a]indol-7-one]	0.0427 µM
O=C(Cc1[nH]c2c(Cl)c(Cl)ccc2c1-c1cn[nH]c1)NCc1cnccn1 [Example 28, 2-[6,7-Dichloro-3-(1H-pyrazol-4-yl)-1H-indol-2-yl]-N-(pyrazin-2-ylmethyl)acetamide]	0.064 µM
Clc1ccc2c(-n3ccnc3)c[nH]c2c1Cl [Example 29, 6,7-Dichloro-3-imidazol-1-yl-1H-indole]	0.0447 µM
Clc1c(Br)ccc2c(-c3cn[nH]c3)c[nH]c12 [Example 30, 6-bromo-7-chloro-3-(1H-pyrazol-4-yl)-1H-indole]	0.034 µM
O=C1NCCn2c1c(-c1cn[nH]c1)c1ccc(Cl)c(Cl)c12 [Example 31, 6,7-Dichloro-10-(1H-pyrazol-4-yl)-3,4-dihydro-2H-pyrazino[1,2-a]indol-1-one]	0.0462 µM
O=C1c2c(-c3cn[nH]c3)c3ccc(Cl)c(Cl)c3n2CCN1CCO [Example 32, 6,7-Dichloro-2-(2-hydroxyethyl)-10-(1H-pyrazol-4-yl)-3,4-dihydropyrazino[1,2-a]indol-1-one]	0.0411 µM
NCCN1CCn2c(c(-c3cn[nH]c3)c3ccc(Cl)c(Cl)c32)C1=O [Example 33, 2-(2-Aminoethyl)-6,7-dichloro-10-(1H-pyrazol-4-yl)-3,4-dihydropyrazino[1,2-a]indol-1-one]	0.0825 µM
Clc1ccc2c(-c3cn[nH]c3)cn(-c3cn[nH]n3)c2c1Cl [Example 34, 6,7-Dichloro-3-(1H-pyrazol-4-yl)-1-(2H-triazol-4-yl)indole]	0.0691 µM

The remaining lines, values ahead:

IC50	Structure (SMILES)
0.0737 µM	O=C(O)CCn1cc(-c2cn[nH]c2)c2ccc(Cl)c(Cl)c21 [Example 35, 3-[6,7-Dichloro-3-(1H-pyrazol-4-yl)indol-1-yl]propanoic acid]
0.0535 µM	O=C(O)Cn1cc(-n2cc(-c3cn[nH]c3)c3ccc(Cl)c(Cl)c32)cn1 [Example 36, 2-[4-[6,7-Dichloro-3-(1H-pyrazol-4-yl)indol-1-yl]pyrazol-1-yl]acetic acid]
0.09 µM	Clc1ccc2c(-c3cn[nH]c3)c3n(c2c1Cl)CCNC3 [Example 37, 6,7-Dichloro-10-(1H-pyrazol-4-yl)-1,2,3,4-tetrahydropyrazino[1,2-a]indole hydrochloride]
0.0404 µM	CC(=O)N1CCn2c(c(-c3cn[nH]c3)c3ccc(Cl)c(Cl)c32)C1 [Example 38, 1-[6,7-Dichloro-10-(1H-pyrazol-4-yl)-3,4-dihydro-1H-pyrazino[1,2-a]indol-2-yl]ethanone]
0.0392 µM	CNC(=O)N1CCn2c(c(-c3cn[nH]c3)c3ccc(Cl)c(Cl)c32)C1 [Example 39, 6,7-dichloro-N-methyl-10-(1H-pyrazol-4-yl)-3,4-dihydro-1H-pyrazino[1,2-a]indole-2-carboxamide]
0.0525 µM	NS(=O)(=O)N1CCn2c(c(-c3cn[nH]c3)c3ccc(Cl)c(Cl)c32)C1 [Example 40, 6,7-dichloro-10-(1H-pyrazol-4-yl)-3,4-dihydro-1H-pyrazino[1,2-a]indole-2-sulfonamide]
0.0328 µM	CS(=O)(=O)N1CCn2c(c(-c3cn[nH]c3)c3ccc(Cl)c(Cl)c32)C1 [Example 41, 6,7-dichloro-2-methylsulfonyl-10-(1H-pyrazol-4-yl)-3,4-dihydro-1H-pyrazino[1,2-a]indole]
0.0273 µM	COCC(=O)N1CCn2c(c(-c3cn[nH]c3)c3ccc(Cl)c(Cl)c32)C1 [Example 42, 1-[6,7-dichloro-10-(1H-pyrazol-4-yl)-3,4-dihydro-1H-pyrazino[1,2-a]indol-2-yl]-2-methoxy-ethanone]
0.0912 µM	O=C(Cn1cncn1)N1CCn2c(c(-c3cn[nH]c3)c3ccc(Cl)c(Cl)c32)C1 [Example 43, 1-[6,7-dichloro-10-(1H-pyrazol-4-yl)-3,4-dihydro-1H-pyrazino[1,2-a]indol-2-yl]-2-(1,2,4-triazol-1-yl)ethanone]
0.0534 µM	CN(C)C(=O)CCC(=O)N1CCn2c(c(-c3cn[nH]c3)c3ccc(Cl)c(Cl)c32)C1 [Example 44, 4-[6,7-dichloro-10-(1H-pyrazol-4-yl)-3,4-dihydro-1H-pyrazino[1,2-a]indol-2-yl]-N,N-dimethyl-4-oxo-butanamide]
0.0834 µM	O=C(CN1CCOCC1)N1CCn2c(c(-c3cn[nH]c3)c3ccc(Cl)c(Cl)c32)C1 [Example 45, 1-[6,7-dichloro-10-(1H-pyrazol-4-yl)-3,4-dihydro-1H-pyrazino [1,2-a]indole-2-yl]-2-morpholino-ethanone]
0.027 µM	Cn1ncnc1COCC(=O)N1CCn2c(c(-c3cn[nH]c3)c3ccc(Cl)c(Cl)c32)C1 [Example 46, 1-[6,7-dichloro-10-(1H-pyrazol-4-yl)-3,4-dihydro-1H-pyrazino[1,2-a]indol-2-yl]-2-[(2-methyl-1,2,4-triazol-3-yl)methoxy]ethanone]
0.0333 µM	COCc1nnc(CN2CCn3c(c(-c4cn[nH]c4)c4ccc(Cl)c(Cl)c43)C2)o1 [Example 47, 2-[[6,7-dichloro-10-(1H-pyrazol-4-yl)-3,4-dihydro-1H-pyrazino[1,2-a]indol-2-yl]methyl]-5-(methoxymethyl)-1,3,4-oxadiazole formic acid salt]
0.0443 µM	O=C(CN1CCOC1=O)N1CCn2c(c(-c3cn[nH]c3)c3ccc(Cl)c(Cl)c32)C1 [Example 48]
0.04 µM	CN1CCOC(C(=O)N2CCn3c(c(-c4cn[nH]c4)c4ccc(Cl)c(Cl)c43)C2)C1 (centres unmarked) [Example 50, [6,7-dichloro-10-(1H-pyrazol-4-yl)-3,4-dihydro-1H-pyrazino[1,2-a]indol-2-yl]-(4-methylmorpholin-2-yl)methanone]
0.0427 µM	O=C(C1COCCO1)N1CCn2c(c(-c3cn[nH]c3)c3ccc(Cl)c(Cl)c32)C1 (centres unmarked) [Example 51, [6,7-dichloro-10-(1H-pyrazol-4-yl)-3,4-dihydro-1H-pyrazino[1,2-a]indol-2-yl]-(1,4-dioxan-2-yl)methanone]
0.0975 µM	CC(=O)N(C)CC(=O)N1CCn2c(c(-c3cn[nH]c3)c3ccc(Cl)c(Cl)c32)C1 [Example 52, N-[2-[6,7-dichloro-10-(1H-pyrazol-4-yl)-3,4-dihydro-1H-pyrazino[1,2-a]indol-2-yl]-2-oxo-ethyl]-N-methyl-acetamide]
0.0268 µM	O=C(CO)N1CCn2c(c(-c3cn[nH]c3)c3ccc(Cl)c(Cl)c32)C1 [Example 53, 1-[6,7-dichloro-10-(1H-pyrazol-4-yl)-3,4-dihydro-1H-pyrazino[1,2-a]indol-2-yl]-2-hydroxy-ethanone]
